{
  "source": "patent US20110263664A1",
  "about": "“Inhibitors of PIM-1 Protein Kinases, Compositions and Methods for Treating Prostate Cancer” (MUSC FOUNDATION FOR RESEARCH DEVELOPMENT, priority 2007, published 2011)",
  "type_in_all_cases": "biochemical",
  "key": {"FGFR1": {"target": "FGFR1 (Homo sapiens, UniProt P11362)", "test": "Kinase selectivity, Table 5: FGFR1", "settings": "read-out: selectivity data (inhibition), FGFR1"}, "p38α": {"target": "p38α (Homo sapiens, UniProt Q16539)", "test": "Kinase selectivity, Table 5: p38α", "settings": "read-out: selectivity data (inhibition), p38α"}, "EGFR": {"target": "EGFR (Homo sapiens, UniProt P00533)", "test": "Kinase selectivity, Table 5: EGFR", "settings": "read-out: selectivity data (inhibition), EGFR"}, "Erk1": {"target": "Erk1 (Homo sapiens, UniProt P27361)", "sequence (P27361 whole entry, species assumed)": "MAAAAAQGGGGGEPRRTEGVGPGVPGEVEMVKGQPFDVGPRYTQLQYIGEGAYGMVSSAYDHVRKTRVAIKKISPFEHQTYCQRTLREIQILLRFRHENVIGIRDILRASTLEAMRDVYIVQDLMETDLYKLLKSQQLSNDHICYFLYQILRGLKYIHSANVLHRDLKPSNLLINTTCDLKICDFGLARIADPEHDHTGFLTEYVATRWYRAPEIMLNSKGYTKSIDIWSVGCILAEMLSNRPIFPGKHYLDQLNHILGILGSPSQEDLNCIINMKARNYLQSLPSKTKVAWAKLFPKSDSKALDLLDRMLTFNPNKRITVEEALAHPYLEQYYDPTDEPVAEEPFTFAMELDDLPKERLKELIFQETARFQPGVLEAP", "test": "Kinase selectivity, Table 5: Erk1", "settings": "read-out: selectivity data (inhibition), Erk1"}, "SGK1": {"target": "SGK1 (Homo sapiens, UniProt O00141)", "sequence (O00141 whole entry, species assumed)": "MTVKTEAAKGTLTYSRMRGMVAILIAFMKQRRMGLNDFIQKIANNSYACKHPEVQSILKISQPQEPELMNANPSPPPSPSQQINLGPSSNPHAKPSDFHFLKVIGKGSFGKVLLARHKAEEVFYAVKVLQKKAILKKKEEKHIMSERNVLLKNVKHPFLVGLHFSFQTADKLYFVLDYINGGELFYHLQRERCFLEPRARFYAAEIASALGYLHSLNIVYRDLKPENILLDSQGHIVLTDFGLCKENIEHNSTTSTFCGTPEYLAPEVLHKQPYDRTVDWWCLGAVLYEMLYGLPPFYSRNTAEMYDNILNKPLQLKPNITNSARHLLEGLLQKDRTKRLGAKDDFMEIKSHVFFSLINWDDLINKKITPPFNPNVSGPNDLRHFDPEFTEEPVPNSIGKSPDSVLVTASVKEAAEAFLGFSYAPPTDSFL", "test": "Kinase selectivity, Table 5: SGK1", "settings": "read-out: selectivity data (inhibition), SGK1"}, "HGK": {"target": "HGK (Homo sapiens, UniProt O95819)", "test": "Kinase selectivity, Table 5: HGK", "settings": "read-out: selectivity data (inhibition), HGK"}, "ROCK2": {"target": "ROCK2 (Homo sapiens, UniProt O75116)", "test": "Kinase selectivity, Table 5: ROCK2", "settings": "read-out: selectivity data (inhibition), ROCK2"}, "SRC": {"target": "SRC (Homo sapiens, UniProt P12931)", "test": "Kinase selectivity, Table 5: SRC", "settings": "read-out: selectivity data (inhibition), SRC"}, "CHK1": {"target": "CHK1 (Homo sapiens, UniProt O14757)", "test": "Kinase selectivity, Table 5: CHK1", "settings": "read-out: selectivity data (inhibition), CHK1"}, "CHK2": {"target": "CHK2 (Homo sapiens, UniProt O96017)", "test": "Kinase selectivity, Table 5: CHK2", "settings": "read-out: selectivity data (inhibition), CHK2"}, "ABL": {"target": "ABL (Homo sapiens, UniProt P00519)", "sequence (P00519 whole entry, species assumed)": "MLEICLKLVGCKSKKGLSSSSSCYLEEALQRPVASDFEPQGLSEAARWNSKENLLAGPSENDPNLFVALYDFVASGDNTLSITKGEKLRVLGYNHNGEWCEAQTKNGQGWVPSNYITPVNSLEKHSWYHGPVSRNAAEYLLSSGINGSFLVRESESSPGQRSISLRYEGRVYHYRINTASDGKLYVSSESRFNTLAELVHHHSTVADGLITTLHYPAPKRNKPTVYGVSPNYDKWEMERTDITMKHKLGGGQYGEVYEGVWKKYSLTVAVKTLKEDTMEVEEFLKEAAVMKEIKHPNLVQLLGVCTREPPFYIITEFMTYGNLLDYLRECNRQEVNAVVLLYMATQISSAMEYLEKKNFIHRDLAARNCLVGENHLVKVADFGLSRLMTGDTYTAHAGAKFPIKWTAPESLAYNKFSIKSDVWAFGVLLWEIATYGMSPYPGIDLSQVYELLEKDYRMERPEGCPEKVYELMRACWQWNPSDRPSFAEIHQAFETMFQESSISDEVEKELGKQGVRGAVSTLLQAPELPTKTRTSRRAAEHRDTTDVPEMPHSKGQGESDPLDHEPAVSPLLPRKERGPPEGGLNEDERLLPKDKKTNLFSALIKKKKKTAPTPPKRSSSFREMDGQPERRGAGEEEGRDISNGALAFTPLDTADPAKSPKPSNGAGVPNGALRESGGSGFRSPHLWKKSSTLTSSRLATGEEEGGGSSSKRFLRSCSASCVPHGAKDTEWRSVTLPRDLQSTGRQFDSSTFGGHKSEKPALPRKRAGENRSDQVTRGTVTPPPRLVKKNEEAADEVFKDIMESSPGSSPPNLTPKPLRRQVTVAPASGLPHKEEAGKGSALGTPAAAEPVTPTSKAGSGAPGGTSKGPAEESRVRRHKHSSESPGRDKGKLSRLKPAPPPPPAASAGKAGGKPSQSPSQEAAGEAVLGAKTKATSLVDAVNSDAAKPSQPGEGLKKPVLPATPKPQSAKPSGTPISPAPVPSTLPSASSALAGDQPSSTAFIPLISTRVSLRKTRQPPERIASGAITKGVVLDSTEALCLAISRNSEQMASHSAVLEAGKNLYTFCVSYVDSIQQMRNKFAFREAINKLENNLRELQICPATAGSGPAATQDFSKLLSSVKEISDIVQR", "test": "Kinase selectivity, Table 5: ABL", "settings": "read-out: selectivity data (inhibition), ABL"}, "SYK": {"target": "SYK (Homo sapiens, UniProt P43405)", "test": "Kinase selectivity, Table 5: SYK", "settings": "read-out: selectivity data (inhibition), SYK"}, "PKA": {"target": "PKA (Homo sapiens, UniProt P17612)", "test": "Kinase selectivity, Table 5: PKA", "settings": "read-out: selectivity data (inhibition), PKA"}, "FLT3": {"target": "FLT3 (Homo sapiens, UniProt P36888)", "sequence (P36888 27-993, species assumed)": "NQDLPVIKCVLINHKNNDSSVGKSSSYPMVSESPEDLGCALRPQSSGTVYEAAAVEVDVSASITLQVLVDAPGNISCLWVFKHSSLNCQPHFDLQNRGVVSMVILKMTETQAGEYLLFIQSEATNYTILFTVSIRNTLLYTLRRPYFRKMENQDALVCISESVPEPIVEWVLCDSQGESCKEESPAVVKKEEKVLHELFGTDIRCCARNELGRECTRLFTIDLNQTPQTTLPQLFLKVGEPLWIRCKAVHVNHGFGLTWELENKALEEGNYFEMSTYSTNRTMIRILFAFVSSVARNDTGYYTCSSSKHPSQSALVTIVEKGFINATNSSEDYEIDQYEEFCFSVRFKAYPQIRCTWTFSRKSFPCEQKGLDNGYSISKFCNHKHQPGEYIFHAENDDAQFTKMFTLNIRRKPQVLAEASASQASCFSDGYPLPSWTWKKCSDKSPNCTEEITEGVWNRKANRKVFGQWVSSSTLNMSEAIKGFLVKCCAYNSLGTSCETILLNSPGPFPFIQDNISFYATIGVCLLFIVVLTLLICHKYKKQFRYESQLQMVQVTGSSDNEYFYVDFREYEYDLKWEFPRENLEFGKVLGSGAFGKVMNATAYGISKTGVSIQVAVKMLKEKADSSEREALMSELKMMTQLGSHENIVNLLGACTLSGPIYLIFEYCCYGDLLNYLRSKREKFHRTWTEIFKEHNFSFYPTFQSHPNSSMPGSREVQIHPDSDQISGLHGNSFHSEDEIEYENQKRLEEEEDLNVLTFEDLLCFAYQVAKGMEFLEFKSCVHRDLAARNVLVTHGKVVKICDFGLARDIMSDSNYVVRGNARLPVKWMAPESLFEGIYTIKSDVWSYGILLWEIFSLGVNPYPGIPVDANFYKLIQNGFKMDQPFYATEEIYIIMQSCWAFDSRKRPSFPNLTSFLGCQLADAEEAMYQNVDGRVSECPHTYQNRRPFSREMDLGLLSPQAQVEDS", "test": "Kinase selectivity, Table 5: FLT3", "settings": "read-out: selectivity data (inhibition), FLT3"}, "CDK2": {"target": "CDK2 (Homo sapiens, UniProt P24941)", "test": "Kinase selectivity, Table 5: CDK2", "settings": "read-out: selectivity data (inhibition), CDK2"}, "Ikkβ": {"target": "Ikkβ (Homo sapiens, UniProt O14920)", "sequence (O14920 whole entry, species assumed)": "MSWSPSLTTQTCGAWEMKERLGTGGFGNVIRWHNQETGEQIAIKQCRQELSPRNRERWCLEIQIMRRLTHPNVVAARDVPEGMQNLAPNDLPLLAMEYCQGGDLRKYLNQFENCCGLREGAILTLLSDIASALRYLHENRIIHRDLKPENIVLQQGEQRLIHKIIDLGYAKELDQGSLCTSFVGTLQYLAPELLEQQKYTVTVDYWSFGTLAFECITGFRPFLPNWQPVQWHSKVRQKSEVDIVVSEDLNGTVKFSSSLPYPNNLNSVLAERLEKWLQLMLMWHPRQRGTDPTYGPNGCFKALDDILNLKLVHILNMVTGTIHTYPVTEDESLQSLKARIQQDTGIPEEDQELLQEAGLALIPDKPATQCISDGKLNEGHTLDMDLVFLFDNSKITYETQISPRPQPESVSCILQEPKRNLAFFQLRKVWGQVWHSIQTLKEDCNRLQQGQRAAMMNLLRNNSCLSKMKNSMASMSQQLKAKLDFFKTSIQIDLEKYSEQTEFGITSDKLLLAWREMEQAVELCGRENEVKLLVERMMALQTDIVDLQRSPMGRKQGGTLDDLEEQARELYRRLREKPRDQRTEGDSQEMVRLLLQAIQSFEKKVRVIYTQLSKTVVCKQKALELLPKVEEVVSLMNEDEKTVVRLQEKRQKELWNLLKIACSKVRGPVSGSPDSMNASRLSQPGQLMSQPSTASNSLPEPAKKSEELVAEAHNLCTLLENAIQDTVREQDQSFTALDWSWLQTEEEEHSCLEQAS", "test": "Kinase selectivity, Table 5: Ikkβ", "settings": "read-out: selectivity data (inhibition), Ikkβ"}, "FYN": {"target": "FYN (Homo sapiens, UniProt P06241)", "sequence (P06241 whole entry, species assumed)": "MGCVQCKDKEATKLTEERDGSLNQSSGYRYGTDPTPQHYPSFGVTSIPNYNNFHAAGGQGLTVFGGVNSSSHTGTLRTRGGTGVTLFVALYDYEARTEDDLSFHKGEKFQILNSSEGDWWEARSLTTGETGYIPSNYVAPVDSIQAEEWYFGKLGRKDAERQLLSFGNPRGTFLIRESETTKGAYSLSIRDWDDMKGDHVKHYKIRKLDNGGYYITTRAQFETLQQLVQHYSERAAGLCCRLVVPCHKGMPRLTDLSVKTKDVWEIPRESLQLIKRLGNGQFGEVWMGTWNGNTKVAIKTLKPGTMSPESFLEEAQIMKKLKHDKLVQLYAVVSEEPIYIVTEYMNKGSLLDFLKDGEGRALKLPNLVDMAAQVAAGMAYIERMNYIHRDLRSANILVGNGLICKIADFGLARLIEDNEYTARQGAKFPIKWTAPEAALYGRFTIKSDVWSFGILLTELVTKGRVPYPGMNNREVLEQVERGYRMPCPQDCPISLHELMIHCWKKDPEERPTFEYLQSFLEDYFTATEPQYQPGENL", "test": "Kinase selectivity, Table 5: FYN", "settings": "read-out: selectivity data (inhibition), FYN"}, "PKCζ": {"target": "PKCζ (Homo sapiens, UniProt Q05513)", "test": "Kinase selectivity, Table 5: PKCζ", "settings": "read-out: selectivity data (inhibition), PKCζ"}, "GSK3β": {"target": "GSK3β (Homo sapiens, UniProt P49841)", "test": "Kinase selectivity, Table 5: GSK3β", "settings": "read-out: selectivity data (inhibition), GSK3β"}, "BMX": {"target": "BMX (Homo sapiens, UniProt P51813)", "sequence (P51813 whole entry, species assumed)": "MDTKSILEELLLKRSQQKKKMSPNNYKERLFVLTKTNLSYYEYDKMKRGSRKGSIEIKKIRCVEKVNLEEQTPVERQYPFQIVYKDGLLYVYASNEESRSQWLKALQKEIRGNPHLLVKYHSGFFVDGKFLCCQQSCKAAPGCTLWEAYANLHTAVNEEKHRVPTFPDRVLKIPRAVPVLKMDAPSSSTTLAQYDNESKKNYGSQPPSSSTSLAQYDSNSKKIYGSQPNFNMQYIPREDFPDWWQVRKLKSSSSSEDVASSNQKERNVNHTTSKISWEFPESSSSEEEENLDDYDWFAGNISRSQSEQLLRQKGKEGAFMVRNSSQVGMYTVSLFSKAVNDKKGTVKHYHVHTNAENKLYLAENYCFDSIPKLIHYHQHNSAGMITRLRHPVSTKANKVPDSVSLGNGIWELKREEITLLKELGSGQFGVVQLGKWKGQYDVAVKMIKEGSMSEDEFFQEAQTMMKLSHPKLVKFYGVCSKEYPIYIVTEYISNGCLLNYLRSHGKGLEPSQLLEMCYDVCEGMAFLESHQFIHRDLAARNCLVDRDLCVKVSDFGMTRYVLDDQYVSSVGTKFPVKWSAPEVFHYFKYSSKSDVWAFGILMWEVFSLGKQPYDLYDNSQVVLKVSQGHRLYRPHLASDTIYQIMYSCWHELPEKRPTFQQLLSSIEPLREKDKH", "test": "Kinase selectivity, Table 5: BMX", "settings": "read-out: selectivity data (inhibition), BMX"}, "c-Raf": {"target": "c-Raf (Homo sapiens, UniProt P04049)", "test": "Kinase selectivity, Table 5: c-Raf", "settings": "read-out: selectivity data (inhibition), c-Raf"}, "KDR": {"target": "KDR (Homo sapiens, UniProt P35968)", "test": "Kinase selectivity, Table 5: KDR", "settings": "read-out: selectivity data (inhibition), KDR"}, "LCK": {"target": "LCK (Homo sapiens, UniProt P06239)", "test": "Kinase selectivity, Table 5: LCK", "settings": "read-out: selectivity data (inhibition), LCK"}},
  "data": [
    {"smiles": "CC(C)c1ccc(C=C2SC(=O)NC2=O)cc1", "note": "[5-(4-iso-propylbenzylidene)thiazolidine-2,4-dione]", "values": [
      {"measurement": "inhibition at 5 µM", "setting": "FGFR1", "result": 1, "unit": "%"},
      {"measurement": "inhibition at 5 µM", "setting": "p38α", "result": 0, "unit": "%"},
      {"measurement": "inhibition at 5 µM", "setting": "EGFR", "result": -3, "unit": "%"},
      {"measurement": "inhibition at 5 µM", "setting": "Erk1", "result": 1, "unit": "%"},
      {"measurement": "inhibition at 5 µM", "setting": "SGK1", "result": 5, "unit": "%"},
      {"measurement": "inhibition at 5 µM", "setting": "HGK", "result": 9, "unit": "%"},
      {"measurement": "inhibition at 5 µM", "setting": "ROCK2", "result": 5, "unit": "%"},
      {"measurement": "inhibition at 5 µM", "setting": "SRC", "result": 4, "unit": "%"},
      {"measurement": "inhibition at 5 µM", "setting": "CHK1", "result": -20, "unit": "%"},
      {"measurement": "inhibition at 5 µM", "setting": "CHK2", "result": 4, "unit": "%"},
      {"measurement": "inhibition at 5 µM", "setting": "ABL", "result": 6, "unit": "%"},
      {"measurement": "inhibition at 5 µM", "setting": "SYK", "result": -3, "unit": "%"},
      {"measurement": "inhibition at 5 µM", "setting": "PKA", "result": 3, "unit": "%"},
      {"measurement": "inhibition at 5 µM", "setting": "FLT3", "result": 1, "unit": "%"},
      {"measurement": "inhibition at 5 µM", "setting": "CDK2", "result": -2, "unit": "%"},
      {"measurement": "inhibition at 5 µM", "setting": "Ikkβ", "result": 10, "unit": "%"},
      {"measurement": "inhibition at 5 µM", "setting": "FYN", "result": 0, "unit": "%"},
      {"measurement": "inhibition at 5 µM", "setting": "PKCζ", "result": 3, "unit": "%"},
      {"measurement": "inhibition at 5 µM", "setting": "GSK3β", "result": 3, "unit": "%"},
      {"measurement": "inhibition at 5 µM", "setting": "BMX", "result": 10, "unit": "%"},
      {"measurement": "inhibition at 5 µM", "setting": "c-Raf", "result": -1, "unit": "%"},
      {"measurement": "inhibition at 5 µM", "setting": "KDR", "result": -4, "unit": "%"},
      {"measurement": "inhibition at 5 µM", "setting": "LCK", "result": 3, "unit": "%"}
    ]}
  ]
}
